Tests used:
[1] = acute toxicity, single oral administration; conditions: rat, in vivo; single oral administration to rats
Source text: The results obtained with representative compounds of formula I in the experiments described earlier are compiled in the following Table. The Table also contains data concerning the acute toxcity of some of these compounds (LD50 in mg/kg following single oral administration to rats).

[2] = test system: spasmodic seizures caused by pentetrazole; assay: antipentetrazole test; assay type: in vivo; conditions: Rattus norvegicus, po, 0.5 h; female rats 60-80 g, p.o. 30 minutes before 120 mg/kg pentetrazole i.p.
Description: The central properties of the compounds of formula I provided by the present invention can be determinded, for example, in the antipentetrazole test which is described hereinafter and which is generally recognized for recording anticonvulsant properties.
In this animal experiment the compound under investigation is administered orally to female rats weighing 60-80 g and 30 minutes later there are administered intraperitoneally 120 mg/kg of pentetrazole which causes emprosthotonus and tonic stretchings of the fore and/or hind limbs in unprotected experimental animals 1 to 4 minutes after the injection. Ten experimental animals are used per dosage of test substance. After counting the protected experimental animals, the ED50 is determined according to the Probit method. The ED50 is that dosage which protects 50% of the experimental animals from the spasmodic seizures caused by pentetrazole.

[3] = molecular target: central benzodiazepine receptors; assay: inhibition of the binding of tritiated diazepam at the specific benzodiazepine receptors in the cerebral cortex; conditions: [3H]diazepam
Description: The affinity of compounds of general formula I to the central benzodiazepine receptors was determined according to the method described in Life Science 20, 2101-2110 (1977) and Science 198, 849-851 (1977). According to this method, the inhibition of the binding of tritiated diazepam at the specific benzodiazepine receptors in the cerebral cortex by the respective test substances is ascertained. The IC50 ("50% inhibiting concentration") is that concentration of the respective test substance which brings about a 50 percent inhibition of the specific binding of the tritiated diazepam at the specific benzodiazepine receptors in the cerebral cortex.

[4] = test system: sedative, muscle relaxant and motor coordination-disturbing activity caused by high dosages of diazepam; assay: traction test (antagonism of diazepam); assay type: in vivo; conditions: Mus musculus, po, 0.25 h; mice, p.o. 15 minutes after 3 mg/kg diazepam i.p.
Description: In this animal experiment the ability of the test substances to antagonise the sedative, muscle relaxant and motor coordination-disturbing activity caused by high dosages of diazepam is determined.
Mice weighing 17-29 g are lifted by the tail and are allowed to grip a taut horizontal wire (length 15 cm, height 20 cm, diameter 1 mm) with the front paws, whereupon the experimental animals are released. Untreated control animals are capable of gripping the wire with both front paws and at least one hind paw within 3 seconds. If 3 mg/kg of diazepam are administered intraperitoneally to the experimental animals, then their aforementioned capabilities disappear, i.e. they are no longer capable of gripping the taut horizontal wire within 3 seconds with both front paws and at least one hind paw. 15 minutes after the administration of diazepam the compound under investigation is administered orally to the experimental animals, whereupon there are counted those animals which have regained the aforementioned capabilities. The ED50 is that dosage which in 50% of the experimental animals antagonizes the action of diazepam, i.e. counteracts this.

SMILES	LD50 [1]	ED50 [2]	IC50 [3]	ED50 [4]
O=C(OCC1CC1)c1ncn2c1[C@@H]1CCCN1C(=O)c1c(Cl)cccc1-2	1000 to 2000 mg/kg	0.66 mg/kg	2300 nM	0.8 mg/kg
O=C(OCC1CC1)c1ncn2c1[C@@H]1CCN1C(=O)c1c(Cl)cccc1-2		0.27 mg/kg	1100 nM	< 30 mg/kg
O=C(OCc1ccccc1)c1ncn2c1[C@@H]1CCCN1C(=O)c1c(Cl)cccc1-2		> 100 mg/kg	1500 nM	0.09 mg/kg
O=C(OC1CCCCC1)c1ncn2c1[C@@H]1CCCN1C(=O)c1c(Br)cccc1-2	> 5000 mg/kg	7 mg/kg	2700 nM	< 30 mg/kg
O=C(OCC1CC1)c1ncn2c1[C@@H]1CCCN1C(=O)c1c(Br)cccc1-2	625 to 1250 mg/kg	0.63 mg/kg	2600 nM	< 30 mg/kg
O=C(OC1CCCCC1)c1ncn2c1[C@@H]1CCCN1C(=O)c1c(I)cccc1-2	> 5000 mg/kg	2.2 mg/kg	2100 nM	> 30 mg/kg
C#CCOC(=O)c1ncn2c1[C@@H]1CCCN1C(=O)c1c(Cl)cccc1-2 [Example 27, 2-propynyl (S)-8-chloro-11,12,13,13a-tetrahydro-9-oxo-9H-imidazo[1,5-a]pyrrolo[2,1-c][1,4]benzodiazepine-1-carboxylate]		> 100 mg/kg	2100 nM	0.005 mg/kg

Source: patent US4489003A, “Imidazobenzodiazepines” (Hoffmann-La Roche Inc., priority 1982, dated 1984)
